Measurements reported in US10494597B2, “Contamination mitigation” (Butamax Advanced Biofuels LLC, priority 2014, dated 2019).

Assays:
[1] = tested on: cell inoculum (shake flask culture); experiment: Shake flask culture with crude COFA with or without BHT, YSI glucose measurements; type: cell-based; conditions: BHT 0 wt % (control) to 5 wt % in crude COFA; 50% v/v COFA; 40 g/L glucose synthetic medium; 30° C., 260 rpm
Protocol: In an experimental example, a cell inoculum originated from a 72 hour seed flask with a 30 g/L synthetic medium. The culture was inoculated into 40 g/L glucose in synthetic medium. […] The flasks were incubated in a thirty degree Celsius (30° C.), 260 revolutions per minute (rpm) shaker. One to one point five milliliter (1-1.5) mL samples were taken at points in time.

[2] = tested on: yeast (e.g., Saccharomyces); conditions: at comparable concentrations; cited from earlier work
[3] = tested on: gram-positive and gram-negative bacteria (e.g., lactobacillus); conditions: cited from earlier work

## Cc1cc(C(C)(C)C)c(O)c(C(C)(C)C)c1 [BHT, butylated hydroxytoluene]
[1]
  glucose consumption: No difference in glucose consumption was observed
[2]
  effect on yeast: does not affect yeast
[3]
  antimicrobial activity to gram-positive and gram-negative bacteria: exhibits antimicrobial activity
